Measurements: ChEMBL document CHEMBL3885861, “Open TG-GATES”

Organism: Rattus norvegicus
Test: Open TG-GATES - Regimen: Single
Format: toxicity, organism-based, Sprague-Dawley
Parameters: regimen Single, gender Male, age 6 weeks
Details: in vivo, iv, route intravenous injection; for APTT / Bas / Eos / Fbg / Lym / MCHC / MCV / Mono / Neu / Plat / RBC / Ret / WBC / Ht / PT / Hb: tissue Blood; for KIDNEY_L / KIDNEY_R / KIDNEY_TOTAL: tissue Kidney; for LIVER: tissue Liver
[1] = 0 mg/kg, 3 h, dose level Control
[2] = 0 mg/kg, 3 h, tissue Plasma, dose level Control
[3] = 0 mg/kg, 6 h, dose level Control
[4] = 0 mg/kg, 6 h, tissue Plasma, dose level Control
[5] = 0 mg/kg, 9 h, dose level Control
[6] = 0 mg/kg, 9 h, tissue Plasma, dose level Control
[7] = 0 mg/kg, 24 h, dose level Control
[8] = 0 mg/kg, 24 h, tissue Plasma, dose level Control

Work on GENTAMICIN yielded a TERMINAL_BW [1] of 212.9 g, an APTT [1] of 22 s and a Bas [1] of 0%. It also gave an Eos [1] of 0.8%, a Fbg [1] of 293.2 mg/dL and a Lym [1] of 79.6%. For the same sequence, the MCHC [1] was 33.9%, the MCV [1] was 61.4 fL and the Mono [1] was 2.8%. The Neu [1] was 16%, the Plat [1] was 119.4 x10_4/uL and the RBC [1] was 631.2 x10_4/ul. It also gave a Ret [1] of 6.4%, a WBC [1] of 123.3 x10_2/uL and a KIDNEY_L [1] of 0.9 g. The KIDNEY_R [1] was 0.9 g, the KIDNEY_TOTAL [1] was 1.9 g and the LIVER [1] was 9.3 g. The ALP [2] was 1296.6 IU/L, the ALT [2] was 39.2 IU/L and the AST [2] was 70.6 IU/L. For the same sequence, the CRE [2] was 0.2 mg/dL, the DBIL [2] was 0 mg/dL and the GLC [2] was 187.4 mg/dL. It also gave an IP [2] of 7.4 mg/dL, a K [2] of 4.4 meq/L and an LDH [2] of 165.6 IU/L. It also gave a PL [2] of 121.4 mg/dL, an RALB [2] of 2.9 g/dL and a TBIL [2] of 0.022 mg/dL. For the same sequence, the TC [2] was 63.6 mg/dL, the TG [2] was 71 mg/dL and the TP [2] was 5.3 g/dL. The gamma-GTP [2] was 1.2 IU/L, the TERMINAL_BW [3] was 209.6 g and the APTT [3] was 23.6 s. For the same sequence, the Bas [3] was 0%, the Eos [3] was 0.6% and the Fbg [3] was 270.6 mg/dL. It also gave a Ht [3] of 39.7%, an MCHC [3] of 33.6% and a Mono [3] of 2.6%. For the same sequence, the PT [3] was 16.4 s, the Plat [3] was 119.5 x10_4/uL and the RBC [3] was 629 x10_4/ul. The Ret [3] was 7%, the WBC [3] was 123.2 x10_2/uL and the KIDNEY_L [3] was 0.9 g. It also gave a KIDNEY_R [3] of 0.9 g, a KIDNEY_TOTAL [3] of 1.8 g and an LIVER [3] of 8.7 g. For the same sequence, the ALP [4] was 1253 IU/L, the ALT [4] was 36.6 IU/L and the AST [4] was 70.2 IU/L. For the same sequence, the BUN [4] was 11.2 mg/dL, the CRE [4] was 0.2 mg/dL and the DBIL [4] was 0 mg/dL. For the same sequence, the IP [4] was 8.3 mg/dL, the K [4] was 4.4 meq/L and the LDH [4] was 199.6 IU/L. The RALB [4] was 2.9 g/dL, the TBIL [4] was 0.018 mg/dL and the TC [4] was 74 mg/dL. It also gave a TG [4] of 75 mg/dL, a TP [4] of 5.3 g/dL and a gamma-GTP [4] of 1.2 IU/L. It also gave an APTT [5] of 22.8 s, a Bas [5] of 0% and an Eos [5] of 1%. The Fbg [5] was 313.6 mg/dL, the Hb [5] was 12.9 g/dL and the Ht [5] was 38.5%. It also gave a Lym [5] of 82%, an MCHC [5] of 33.5% and an MCV [5] of 61.2 fL. The Mono [5] was 2.6%, the PT [5] was 16 s and the Plat [5] was 124.4 x10_4/uL. The RBC [5] was 628 x10_4/ul, the Ret [5] was 6.9% and the WBC [5] was 82.5 x10_2/uL. It also gave a KIDNEY_L [5] of 0.9 g, a KIDNEY_R [5] of 0.9 g and a KIDNEY_TOTAL [5] of 1.8 g. The LIVER [5] was 8.3 g, the ALP [6] was 1527.6 IU/L and the ALT [6] was 36.4 IU/L. For the same sequence, the AST [6] was 67.4 IU/L, the CRE [6] was 0.2 mg/dL and the DBIL [6] was 0 mg/dL. For the same sequence, the GLC [6] was 199.2 mg/dL, the IP [6] was 9.5 mg/dL and the K [6] was 4.1 meq/L. It also gave an LDH [6] of 131.6 IU/L, a PL [6] of 126.2 mg/dL and an RALB [6] of 2.9 g/dL. The TBIL [6] was 0.022 mg/dL, the TG [6] was 38.2 mg/dL and the TP [6] was 5.4 g/dL. For the same sequence, the gamma-GTP [6] was 1.2 IU/L, the TERMINAL_BW [7] was 228.2 g and the APTT [7] was 23.4 s. The Bas [7] was 0%, the Eos [7] was 1% and the Fbg [7] was 293.6 mg/dL. It also gave a Ht [7] of 38.2%, an MCHC [7] of 34.3% and an MCV [7] of 61.9 fL. For the same sequence, the Mono [7] was 2.6%, the Neu [7] was 16% and the Plat [7] was 125.4 x10_4/uL. For the same sequence, the RBC [7] was 618.6 x10_4/ul, the Ret [7] was 5.8% and the WBC [7] was 109.8 x10_2/uL. The KIDNEY_L [7] was 1 g, the KIDNEY_R [7] was 1 g and the KIDNEY_TOTAL [7] was 2 g. For the same sequence, the ALP [8] was 1416.8 IU/L, the AST [8] was 71.6 IU/L and the BUN [8] was 15 mg/dL. The CRE [8] was 0.2 mg/dL, the DBIL [8] was 0 mg/dL and the IP [8] was 6.9 mg/dL. For the same sequence, the K [8] was 4.4 meq/L, the LDH [8] was 156.8 IU/L and the Na [8] was 140.4 meq/L. It also gave a PL [8] of 138.2 mg/dL, an RALB [8] of 3 g/dL and a TBIL [8] of 0.012 mg/dL. It also gave a TC [8] of 68.4 mg/dL, a TG [8] of 114.4 mg/dL and a TP [8] of 5.4 g/dL. The gamma-GTP [8] was 1.4 IU/L, the TERMINAL_BW (10 mg/kg, 3 h, dose level Low) was 211.7 g and the APTT (10 mg/kg, 3 h, dose level Low) was 22.2 s. It also gave a Bas (10 mg/kg, 3 h, dose level Low) of 0%, an Eos (10 mg/kg, 3 h, dose level Low) of 0.2% and a Fbg (10 mg/kg, 3 h, dose level Low) of 301.8 mg/dL. It also gave a Hb (10 mg/kg, 3 h, dose level Low) of 13 g/dL and a Ht (10 mg/kg, 3 h, dose level Low) of 38.1%.
